Experimental data: patent US11648254B2 (Kumquat Biosciences Inc., priority 2021, dated 2023)
Like-named read-outs stand apart in the source and are kept apart here.

Target: SOS1 (Homo sapiens (Human), UniProt Q07889)
Experiment: Ras-SOS interaction assay (HTRF)
Assay type: biochemical
From the text: The ability of any compound of the present disclosure to reduce a Ras protein signaling output by, e.g., interfering or disrupting interaction (or binding) between SOS1 and a Ras protein can be assessed in vitro. For example, the equilibrium interaction of human SOS1 (hSOS1) with human wildtype Kras or K-Ras mutant (e.g., hK-Ras G12C mutant, or hK-RasG12C) can be assessed as a proxy or an indication for a subject compound's ability to inhibit SOS. Detection of such interaction is achieved by measuring homogenous time-resolved fluorescence resonance energy transfer (HTRF) from (i) a fluorescence resonance energy transfer (FRET) donor (e.g., antiGST-Europium) that is bound to GST-tagged K-RasG12C to (ii) a FRET acceptor (e.g., anti-6His-XL665) bound to a His-tagged hSOS1.
The assay buffer can contain 5 mM HEPES pH 7.4, 150 mM NaCl, 10 mM EDTA, 1 mM DTT, 0.05% BSA, 0.0025% (v/v) Igepal and 100 mM KF. A Ras working solution is prepared in assay buffer containing typically 10 nM of the protein construct (e.g., GST-tagged hK-RasG12C) and 2 nM of the FRET donor (e.g., antiGST-Eu(K) from Cisbio, France). A SOS1 working solution is prepared in assay buffer containing typically 10 nM of the protein construct (e.g., His-hSOS1) and 10 nM of the FRET acceptor (e.g., anti-6His-XL665 from Cisbio, France). An inhibitor control solution is prepared in assay buffer containing 10 nM of the FRET acceptor without the SOS1 protein.
A fixed reaction mixture with or without test compound is transferred into a 384-well plate. Ras working solution is added to all wells of the test plate. SOS1 working solution is added to all wells except for those that are subsequently filled the inhibitor control solution. After approximately 60 min incubation, the fluorescence is measured with a M1000Pro plate reader (Tecan) using HTRF detection (excitation 337 nm, emission 1: 620 nm, emission 2: 665 nm). Compounds are tested in duplicates at different concentrations (for example, 10 μM, 2.5 μM, 0.63 μM, 0.16 μM, 0.04 μM, 0.01 μM test compound). The ratiometric data (i.e., emission 2 divided by emission 1) is used to calculate IC50 values against SOS1 using GraphPad Prism (GraphPad software).

[1] = K-RasG13D utilized, read-out: IC50 inhibition of SOS
[2] = K-RasG13D, read-out: IC50 value against SOS1

Chain of SOS1 (Q07889 564-1049): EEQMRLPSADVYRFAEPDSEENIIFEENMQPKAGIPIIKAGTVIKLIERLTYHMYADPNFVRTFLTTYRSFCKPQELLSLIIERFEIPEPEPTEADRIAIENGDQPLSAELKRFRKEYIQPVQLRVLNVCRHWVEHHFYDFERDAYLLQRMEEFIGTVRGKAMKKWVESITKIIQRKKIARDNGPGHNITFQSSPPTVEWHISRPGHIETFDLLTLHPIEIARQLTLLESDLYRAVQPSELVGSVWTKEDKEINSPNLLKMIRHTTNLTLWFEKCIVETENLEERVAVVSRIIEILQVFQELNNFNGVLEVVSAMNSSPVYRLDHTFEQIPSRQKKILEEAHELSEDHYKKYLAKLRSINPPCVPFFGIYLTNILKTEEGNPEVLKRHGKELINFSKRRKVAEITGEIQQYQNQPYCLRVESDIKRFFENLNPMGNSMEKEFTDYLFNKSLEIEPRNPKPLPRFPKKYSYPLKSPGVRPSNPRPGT

SMILES: COc1nc2nc(C)nc(N[C@H](C)c3cccc(C(F)F)c3F)c2cc1S(=O)(=O)N1CCN(C)CC1 [Compound 106, (R)—N-(1-(3-(difluoromethyl)-2-fluorophenyl)ethyl)-7-methoxy-2-methyl-6-((4-methylpiperazin-1-yl)sulfonyl)pyrido[2,3-d]pyrimidin-4-amine]
- IC50 [1]: < 100 nM

SMILES: Cc1nc(N[C@H](C)c2cccc(C(F)(F)F)c2F)c2cc(N3CCN(C(C)C)CC3)nnc2n1 [Compound 107, (R)—N-(1-(2-fluoro-3-(trifluoromethyl)phenyl)ethyl)-3-(4-isopropylpiperazin-1-yl)-7-methylpyrimido[4,5-c]pyridazin-5-amine]
- IC50 [1]: < 100 nM

SMILES: Cc1nc(N[C@H](C)c2cccc(C(F)F)c2F)c2cc(N3CCN(C(C)C)CC3)nnc2n1 [Compound 108, (R)—N-(1-(3-(difluoromethyl)-2-fluorophenyl)ethyl)-3-(4-isopropylpiperazin-1-yl)-7-methylpyrimido[4,5-c]pyridazin-5-amine]
- IC50 [1]: < 100 nM

SMILES: COc1nc2nc(C)nc(N[C@H](C)c3cccc(C)c3F)c2cc1[C@H]1C[C@@H](N)C1 [Compound 111, 6-((1s,3S)-3-aminocyclobutyl)-N-((R)-1-(2-fluoro-3-methylphenyl)ethyl)-7-methoxy-2-methylpyrido[2,3-d]pyrimidin-4-amine]
- IC50 [1]: 100 to 1000 nM

SMILES: COc1nc2nc(C)nc(N[C@H](C)c3cccc(C(F)F)c3F)c2cc1C1CCNCC1 [Compound 121, (R)—N-(1-(3-(difluoromethyl)-2-fluorophenyl)ethyl)-7-methoxy-2-methyl-6-(piperidin-4-yl)pyrido[2,3-d]pyrimidin-4-amine]
- IC50 [1]: < 100 nM
- IC50 [2]: < 50 nM

SMILES: COc1nc2nc(C)nc(N[C@H](C)c3cccc(C(F)F)c3F)c2cc1C1CCN(C(=O)NC2CNC2)CC1 [Compound 122, (R)-N-(azetidin-3-yl)-4-(4-((1-(3-(difluoromethyl)-2-fluorophenyl)ethyl)amino)-7-methoxy-2-methylpyrido[2,3-d]pyrimidin-6-yl)piperidine-1-carboxamide]
- IC50 [1]: < 100 nM
- IC50 [2]: < 50 nM

SMILES: COc1nc2nc(C)nc(N[C@H](C)c3cccc(C(F)F)c3F)c2cc1C1CCN(C(=O)NC2CN(C)C2)CC1 [Compound 124, (R)-4-(4-((1-(3-(difluoromethyl)-2-fluorophenyl)ethyl)amino)-7-methoxy-2-methylpyrido[2,3-d]pyrimidin-6-yl)-N-(1-methylazetidin-3-yl)piperidine-1-carboxamide]
- IC50 [1]: < 100 nM
- IC50 [2]: < 50 nM

SMILES: COc1nc2nc(C)nc(N[C@H](C)c3cccc(C(F)F)c3F)c2cc1C1(C#N)CCN(Cc2ccccc2)CC1 [Compound 140, (R)-1-benzyl-4-(4-((1-(3-(difluoromethyl)-2-fluorophenyl)ethyl)amino)-7-methoxy-2-methylpyrido[2,3-d]pyrimidin-6-yl)piperidine-4-carbonitrile]
- IC50 [1]: 100 to 1000 nM

SMILES: Cc1nc(N[C@H](C)c2cccc(C(F)F)c2F)c2cc(S(=O)(=O)C3CCN(C)CC3)c(C)nc2n1 [Compound 141, (R)-N-(1-(3-(difluoromethyl)-2-fluorophenyl)ethyl)-2,7-dimethyl-6-((1-methylpiperidin-4-yl)sulfonyl)pyrido[2,3-d]pyrimidin-4-amine]
- IC50 [1]: < 100 nM

SMILES: COc1nc2nc(C)nc(N[C@H](C)c3cc(F)cc(C(F)F)c3F)c2cc1C1CCS(=O)(=O)CC1 [Compound 144, (R)-4-(4-((1-(3-(difluoromethyl)-2,5-difluorophenyl)ethyl)amino)-7-methoxy-2-methylpyrido[2,3-d]pyrimidin-6-yl)tetrahydro-2H-thiopyran 1,1-dioxide]
- IC50 [1]: 100 to 1000 nM

SMILES: COc1nc2nc(N3CCC3)nc(N[C@H](C)c3cccc(C(F)F)c3F)c2cc1N1CCN(C(C)C)CC1 [Compound 168, (R)-2-(azetidin-1-yl)-N-(1-(3-(difluoromethyl)-2-fluorophenyl)ethyl)-6-(4-isopropylpiperazin-1-yl)-7-methoxypyrido[2,3-d]pyrimidin-4-amine]
- IC50 [1]: 100 to 1000 nM
